The results in this text go back to patent US20100004293A1, “CRYSTALLINE FORMS OF ARYL-SUBSTITUTED PYRAZOLE-AMIDE COMPOUNDS” (Bristol-Myers Squibb Company, priority 2006, published 2010).

In brackets after ≈: the same amount, converted by molar mass. Bounds are passed on as bounds.

A short description of series [1]: slurry conversion studies at 25 and 50° C. and melting data (relative polymorph stability). It is filed as physicochemical.
Series [2] in a line: aqueous solubility of crystalline forms. In kind it is physicochemical.
Series [3] is described as follows: solid-state storage stability (temperature/humidity, HIL, filler excipients). It is filed as physicochemical. The text has this: (§1) Based on the equilibrium RH studies, N-2 could undergo hydrate formation during handling, formulation or storage.
The next series in a line: drying studies for H-1. It is filed as physicochemical.
Text: as §1

Another series is described as follows: moisture sorption study. In kind it is physicochemical. The text has this:
(§2) The available data establish the following RH range for equilibrium N-2/H-1 conversion: 25%<RHeq<=30%. Wetcakes subjected to RH<30% are subject to dehydration, kinetic factors notwithstanding.

The nature of series [4]: slurry conversion studies in butanol/water mixtures (N-2/H-1). To be noted: N-2 versus H-1, butanol/water slurry. In kind it is physicochemical.
Text: as §2

The nature of series [5]: dehydration/heating of monohydrate H-1. In kind it is physicochemical.
The nature of series [6]: monkey PK crossover study. It is filed as in vivo. The following applies: monkey PK crossover study (n=4).
Text: as §1

The nature of series [7]: solvate stability by single crystal structure determination at different temperatures. It is filed as physicochemical. The following applies: solvent site fully occupied at −50° C., still 50% occupied at +82° C. The source says: In addition to the monohydrate, Compound I also forms solvates with a large number of organic solvents. The type 3 family of solvates (represented by an EtOAc solvate, form EA.5-3; a PrOAc solvate, form PA.5-3; a MeCN solvate, form AN-3; and a CH2CL2 solvate, DC-3) have a large hydrophobic clathrate channel (V˜215 Å^3) parallel to the crystallographic a repeat. […] The single crystal structures of an ethanol solvate (E-8), an isopropanol solvate (IPA-10), a second acetonitrile form (AN-11) and three mixed solvates (SA-9, SB-12, SC-13) with THF and water have been determined.

Setting [8] is: exposed to HIL for at least 1 week.
The mark [9] stands for this setting: stored at 50° C./75% RH open and closed for at least 4 weeks.

On to `Cc1ccc(C(=O)NC2CC2)cc1NC(=O)c1cnn(-c2ncccc2C(F)(F)F)c1C` [Form N-7, N-(5-(cyclopropylcarbamoyl)-2-methylphenyl)-5-methyl-1-(3-(trifluoromethyl)pyridin-2-yl)-1H-pyrazole-4-carboxamide], for which, in series [1] (versus N-2, N-5 and N-6), the “relative stability of N-7 (monotropic with N-2, N-5 and N-6)” value was “less stable at all temperatures below 192 °C”.

Turning to `Cc1ccc(C(=O)NC2CC2)cc1NC(=O)c1cnn(-c2ncccc2C(F)(F)F)c1C` [Form H-1, N-(5-(cyclopropylcarbamoyl)-2-methylphenyl)-5-methyl-1-(3-(trifluoromethyl)pyridin-2-yl)-1H-pyrazole-4-carboxamide], the aqueous solubility in series [2] turned out to be 7 µg/mL (≈ 15.8 µM). Also, the “chemical and physical stability in the solid-state” value in series [3] (setting [8]) was “chemically and physically stable”; in [3] (setting [9]), “chemically and physically stable”. The entries for the “form conversion on drying” value in the series “drying studies for H-1” (dryer at 20-30% RH) and in the series “drying studies for H-1” (dryer maintained at 40° C. at RH 2.4-3.4%) were “no conversion was observed” and “converted to N-7”, respectively. For the same compound, the hygroscopicity entry in “moisture sorption study” (about 35 to about 75% RH) is given as “essentially non-hygroscopic”. In addition, the “water sorption, descending RH run” value in “moisture sorption study” (at 25% RH) is listed as “partially dehydrated”. Further, the “RH at which the form is the more stable form” value in series [4] is reported as ≥ 30%. In addition, the “form conversion upon heating” value in series [5] (90° C., 30 m, to neat form T1H1 (N-7)) is given as “converts topotactically”. Also, the “stability under reduced humidity” value in series [5] (reduced humidity) is given as “unstable”.

Consider `Cc1ccc(C(=O)NC2CC2)cc1NC(=O)c1cnn(-c2ncccc2C(F)(F)F)c1C` [Form N-2, N-(5-(cyclopropylcarbamoyl)-2-methylphenyl)-5-methyl-1-(3-(trifluoromethyl)pyridin-2-yl)-1H-pyrazole-4-carboxamide], for which the aqueous solubility in [2] was ≥ 28 µg/mL. The “solubility ratio (N-2 to H-1)” value in series [2] (aqueous solubility, N-2 relative to H-1) is given as ~4 ×. Besides, in [6], the “exposure for the N-2 relative to H-1” value was ~2 fold. Further, the “chemical and physical stability in the solid-state” value in series [3] (setting [8]) was “chemically and physically stable”; in [3] (setting [9]) it was “chemically and physically stable”. In addition, the “form conversion (hydrate formation) on storage” value in series [3] (stored 3 weeks or more at elevated temperature and humidity (e.g., 50° C./75% RH), in the presence of common filler excipients) was “no conversion”. Also, the hygroscopicity result in the series “moisture sorption study” (about 25 to about 75% RH at 25° C.) is listed as “non-hygroscopic”. Further, in [1] (at 25° C. and 50° C.), the “relative stability among polymorphic (neat) forms” value was “most stable polymorphic (neat) form”. In addition, in series [4], the “RH at which the form is the more stable form” value is ≤ 16%.

For `Cc1ccc(C(=O)NC2CC2)cc1NC(=O)c1cnn(-c2ncccc2C(F)(F)F)c1C` [Form N-5, N-(5-(cyclopropylcarbamoyl)-2-methylphenyl)-5-methyl-1-(3-(trifluoromethyl)pyridin-2-yl)-1H-pyrazole-4-carboxamide], the “relative stability N-5:N-6 (monotropes)” value in [1] (N-5 versus N-6) is “more stable”.

In the case of `Cc1ccc(C(=O)NC2CC2)cc1NC(=O)c1cnn(-c2ncccc2C(F)(F)F)c1C` [Form M-4], the stability of solvate result in [7] was “relatively stable”.

In the case of `Cc1ccc(C(=O)NC2CC2)cc1NC(=O)c1cnn(-c2ncccc2C(F)(F)F)c1C` [dehydrated H-1], the “water sorption, ascending RH run” value in “moisture sorption study” (between 75 and 95% RH) was “partially rehydrates to H-1”.
